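How tested: cells in 96-well plates exposed to compound for 48 hours at five concentrations. Definition used: TGI = concentration required for complete inhibition of growth.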
Tests used:
Assay in all cases: NCI-60 cell line screen, 48 h
786-0 renal = test system: 786-0 renal
A498 renal = test system: A498 renal
A549 NSCLC = test system: A549 NSCLC
ACHN renal = test system: ACHN renal
CCRF-CEM leukemia = test system: CCRF-CEM leukemia
COLO 205 colon = test system: COLO 205 colon
DLD-1 colon = test system: DLD-1 colon
DMS 114 small cell lung = test system: DMS 114 small cell lung
DMS 273 small cell lung = test system: DMS 273 small cell lung
EKVX NSCLC = test system: EKVX NSCLC
HCC-2998 colon = test system: HCC-2998 colon
HCT-116 colon = test system: HCT-116 colon
HCT-15 colon = test system: HCT-15 colon
HL-60(TB) leukemia = test system: HL-60(TB) leukemia
HOP-18 NSCLC = test system: HOP-18 NSCLC
HOP-62 NSCLC = test system: HOP-62 NSCLC
HOP-92 NSCLC = test system: HOP-92 NSCLC
HT29 colon = test system: HT29 colon
IGROV1 ovarian = test system: IGROV1 ovarian
K-562 leukemia = test system: K-562 leukemia
KM12 colon = test system: KM12 colon
KM20L2 colon = test system: KM20L2 colon
LOX IMVI melanoma = test system: LOX IMVI melanoma
LXFL 529 NSCLC = test system: LXFL 529 NSCLC
M14 melanoma = test system: M14 melanoma
M19-MEL melanoma = test system: M19-MEL melanoma
MALME-3M melanoma = test system: MALME-3M melanoma
MOLT-4 leukemia = test system: MOLT-4 leukemia
NCI-H226 lung = test system: NCI-H226 lung
NCI-H23 lung = test system: NCI-H23 lung
NCI-H460 lung = test system: NCI-H460 lung
NCI-H522 lung = test system: NCI-H522 lung
OVCAR-3 ovarian = test system: OVCAR-3 ovarian
OVCAR-4 ovarian = test system: OVCAR-4 ovarian
OVCAR-8 ovarian = test system: OVCAR-8 ovarian
RPMI-8226 leukemia = test system: RPMI-8226 leukemia
RXF 393 renal = test system: RXF 393 renal
SF-268 CNS = test system: SF-268 CNS
SF-295 CNS = test system: SF-295 CNS
SF-539 CNS = test system: SF-539 CNS
SK-MEL-2 melanoma = test system: SK-MEL-2 melanoma
SK-MEL-28 melanoma = test system: SK-MEL-28 melanoma
SK-OV-3 ovarian = test system: SK-OV-3 ovarian
SN12C renal = test system: SN12C renal
SNB-19 CNS = test system: SNB-19 CNS
SNB-75 CNS = test system: SNB-75 CNS
SNB-78 CNS = test system: SNB-78 CNS
SR leukemia = test system: SR leukemia
SW-620 colon = test system: SW-620 colon
TK-10 renal = test system: TK-10 renal
U251 CNS = test system: U251 CNS
UACC-257 melanoma = test system: UACC-257 melanoma
UACC-62 melanoma = test system: UACC-62 melanoma
UO-31 renal = test system: UO-31 renal
XF 498 CNS = test system: XF 498 CNS
CAKI-1 renal = test system: CAKI-1 renal
SK-MEL-5 melanoma = test system: SK-MEL-5 melanoma

Measured: TGI

Cc1c(/C=N/NC(=O)c2ccccc2)c(=O)n(-c2ccccc2)n1C
not listed: CAKI-1 renal | SK-MEL-5 melanoma
> 100 µM: all other assays above

CCOC(=O)NC(=O)c1cn(CCCCCOC(=O)NCCCCCCNC(=O)OCCCCCn2cc(C(=O)NC(=O)OCC)c(=O)[nH]c2=O)c(=O)[nH]c1=O
not listed: HOP-92 NSCLC | NCI-H23 lung | SR leukemia | TK-10 renal | XF 498 CNS
> 100 µM: all other assays above

Source: PubChem BioAssay (NCI)
